US9745339B2 (GRAFFINITY PHARMACEUTICALS GMBH, priority 2012, dated 2017)

Columns and labels:
Settings in all cases: L55-73: estimated values based on the knowledge obtained from L01-L54
Palivizumab = assay: Microtiter plate chromatography of resins: binding and elution of Palivizumab
Protocol: (§1) Resins were assessed in packed mode by microtiter plate chromatography. For each column, approximately 30 μl of resin were transferred to a 384-well filter plate and sealed with appropriate top fits. Columns with rProtein A SEPHAROSE 4 FF and MABSORBENT A2P HF were included as controls.
(§2) Either 3.3 cv of whole IgGs dissolved at 0.5 mg ml^−1 in PBS or undiluted host cell proteins (HCP) were injected onto columns.
(§3) Unbound protein was washed from columns with 5 cv of PBS prior to elution with 5 cv of glycine buffer at pH 2.5. […] During injection of samples, speed was reduced to 10 g and centrifugation time increased to 5-10 min. Effluent fractions were collected in 384-well plates and concentrations of protein were analyzed by Bradford assay. Protein masses mi, mft and me (see below) were calculated as the product of fraction volume and measured protein concentration.
(§4) The fraction of bound protein was calculated as the difference between the total mass of protein injected mi and the mass of protein detected in the flowthrough mft, divided by the total mass of protein injected.
(§5) The yield of protein was calculated as the mass of protein eluted me, divided by the mass of protein injected mi.
(§6) The fraction of bound protein and the yield of protein were calculated for each resin based on data for whole IgG-antibodies. In the case of host cell proteins, only the fraction of bound protein is given. Selectivity of resins was calculated from data for Bevacizumab whole IgG and host cell proteins. Due to limited experimental precision, selectivity was truncated for values beyond 10.

Tocilizumab = assay: Microtiter plate chromatography of resins: binding and elution of Tocilizumab
Protocol: as §1, §2, §3, §4, §5, §6

host cell proteins (HCP) = assay: Microtiter plate chromatography of resins: binding of host cell proteins; parameters: species or system CHO cell culture
Protocol: Flowthrough from protein A chromatography (referred to as host cell proteins) was derived from the supernatant of antibody-producing CHO cell culture in serum-free medium. Coomassie brilliant blue dye reagent for Bradford assay was purchased from Thermo Scientific (Bonn/Germany).
as §1, §2, §3, §4, §6

Bevacizumab = biological target: T1, Bevacizumab (Homo sapiens, UniProt P01857); assay: Microtiter plate chromatography of resins: binding and elution of Bevacizumab
T1 construct: 0.5 mg/ml IgG in PBS pH 7.3; ligand immobilized on SEPHAR; Bevacizumab Yield; other: mass eluted (glycine pH 2.5) / mass injected; kd (dissociation constant, Langmuir isotherm); other: Bevacizumab 0.05-5 mg/ml in PBS pH 7.3, 25° C., at least 3 h; qm (maximum capacity); other: mg Bevacizumab per ml of resin; Langmuir isotherm; t0; fused on or other part: Humanized anti-VEGF-A VH domain joined N-terminally to the IGHG1 constant region (engineered, no UniProt entry)
Protocol: as §1, §2, §3, §4, §5
The selectivity of resins was calculated as the fraction of bound Bevacizumab antibody BAb, divided by the fraction of bound host cell proteins BHCP.
as §6

[1] = system: poly-IgG from human serum (h-poly-IgG); assay: Microtiter plate chromatography of resins: binding and elution of human poly-IgG
Protocol: as §1, §2, §3, §4, §5, §6

Cetuximab = assay: Microtiter plate chromatography of resins: binding and elution of Cetuximab
Protocol: as §1, §2, §3, §4, §5, §6

Row | Compound | Palivizumab Bound (Palivizumab) | Tocilizumab Bound (Tocilizumab) | Bevacizumab Bound (Bevacizumab) | Bevacizumab Yield (Bevacizumab) | h-poly-IgG Bound [1] | Cetuximab Bound (Cetuximab) | HCP Bound (host cell proteins (HCP))
1 | NCCCn1cnc2cc(C(=O)Nc3nc(-c4ccco4)ns3)ccc21 [Ligand L55, 1-(3-Amino-1-propyl)benzimidazole-5-carboxylic acid N-[3-(2-furyl)-1,2,4-thiadiazol-5-yl] amide] | >80% | >95% | 100% | >80% | >80% | 100% | <40%
2 | NCCCn1cnc2cc(C(=O)Nc3nnc(-c4ccoc4)s3)ccc21 [Ligand L56, 1-(3-Amino-1-propyl)benzimidazole-5-carboxylic acid N-[5-(3-furyl)-1,3,4-thiadiazol-2-yl] amide] | >80% | >95% | 100% | >80% | >80% | 100% | <40%
3 | NCCCn1cnc2cc(C(=O)Nc3nc(-c4ccco4)cs3)ccc21 [Ligand L57, 1-(3-Amino-1-propyl)benzimidazole-5-carboxylic acid N-[4-(2-furyl)thiazol-2-yl] amide] | >80% | >95% | 100% | >80% | >80% | 100% | <40%
4 | NCCCn1cnc2cc(C(=O)Nc3ncc(-c4ccco4)s3)ccc21 [Ligand L58, 1-(3-Amino-1-propyl)benzimidazole-5-carboxylic acid N-[5-(2-furyl)thiazol-2-yl] amide] | >80% | >95% | 100% | >80% | >80% | 100% | <40%
5 | Cc1nc2cc(C(=O)Nc3nc(-c4ccco4)ns3)ccc2n1CCCN [Ligand L60, 1-(3-Amino-1-propyl)-2-methylbenzimidazole-5-carboxylic acid N-[3-(2-furyl)-1,2,4-thiadiazol-5-yl] amide] | >80% | >95% | 100% | >80% | >80% | 100% | <40%
6 | Cc1nc2cc(C(=O)Nc3nnc(-c4ccoc4)s3)ccc2n1CCCN [Ligand L61, 1-(3-Amino-1-propyl)-2-methylbenzimidazole-5-carboxylic acid N-[5-(3-furyl)-1,3,4-thiadiazol-2-yl] amide] | >80% | >95% | 100% | >80% | >80% | 100% | <40%
7 | Cc1nc2cc(C(=O)Nc3ncc(-c4ccco4)s3)ccc2n1CCCN [Ligand L63, 1-(3-Amino-1-propyl)-2-methylbenzimidazole-5-carboxylic acid N-[5-(2-furyl)thiazol-2-yl] amide] | >80% | >95% | 100% | >80% | >80% | 100% | <20%
8 | CCc1nc2cc(C(=O)Nc3nnc(-c4ccoc4)s3)ccc2n1CCCN [Ligand L66, 1-(3-Amino-1-propyl)-2-ethylbenzimidazole-5-carboxylic acid N-[5-(3-furyl)-1,3,4-thiadiazol-2-yl] amide] | >80% | >95% | 100% | >80% | >80% | 100% | <30%
9 | NCCCNc1nc(-c2ccc(C(=O)Nc3nnc(-c4ccco4)s3)cc2)cs1 [Ligand L70, 4-[2-(3-Amino-1-propylamino)thiazol-4-yl]benzoic acid N-[5-(2-furyl)-1,3,4-thiadiazol-2-yl]amide] | >50% | >80% | 100% | >80% | >80% | >80% | <40%
10 | Cc1nc2cc(C(=O)Nc3nnc(-c4ccno4)s3)ccc2n1CCCN [Ligand L71, 1-(3-Amino-1-propyl)-2-methylbenzimidazole-5-carboxylic acid N-[5-(5-isoxazolyl)-1,3,4-thiadiazol-2-yl] amide] | >60% | >90% | 100% | >80% | >80% | >95% | <20%
11 | Cc1nc2cc(C(=O)Nc3nnc(-c4cnco4)s3)ccc2n1CCCN [Ligand L72, 1-(3-Amino-1-propyl)-2-methylbenzimidazole-5-carboxylic acid N-[5-(5-oxazolyl)-1,3,4-thiadiazol-2-yl] amide] | >60% | >90% | 100% | >80% | >80% | >95% | <20%

Continued, in another order:

Row | Palivizumab Bound (Palivizumab) | Tocilizumab Bound (Tocilizumab) | Bevacizumab Bound (Bevacizumab) | Bevacizumab Yield (Bevacizumab) | h-poly-IgG Bound [1] | Cetuximab Bound (Cetuximab) | Compound | HCP Bound (host cell proteins (HCP))
12 | >60% | >90% | 100% | >80% | >80% | >95% | NCCCn1cnc2cc(C(=O)Nc3ccc(-c4ccco4)nn3)ccc21 [Ligand L59, 1-(3-Amino-1-propyl)benzimidazole-5-carboxylic acid N-[6-(2-furyl)pyridazin-3-yl] amide] | <40%
13 | >80% | >95% | 100% | >80% | >80% | 100% | Cc1nc2cc(C(=O)Nc3nc(-c4ccco4)cs3)ccc2n1CCCN [Ligand L62, 1-(3-Amino-1-propyl)-2-methylbenzimidazole-5-carboxylic acid N-[4-(2-furyl)thiazol-2-yl] amide] | <40%
14 | >60% | >90% | 100% | >80% | >80% | >95% | Cc1nc2cc(C(=O)Nc3ccc(-c4ccco4)nn3)ccc2n1CCCN [Ligand L64, 1-(3-Amino-1-propyl)-2-methylbenzimidazole-5-carboxylic acid N-[6-(2-furyl)pyridazin-3-yl] amide] | <20%
15 | >80% | >95% | 100% | >80% | >80% | 100% | CCc1nc2cc(C(=O)Nc3nc(-c4ccco4)ns3)ccc2n1CCCN [Ligand L65, 1-(3-Amino-1-propyl)-2-ethylbenzimidazole-5-carboxylic acid N-[3-(2-furyl)-1,2,4-thiadiazol-5-yl] amide] | <30%
16 | >80% | >95% | 100% | >80% | >80% | 100% | CCc1nc2cc(C(=O)Nc3nc(-c4ccco4)cs3)ccc2n1CCCN [Ligand L67, 1-(3-Amino-1-propyl)-2-ethylbenzimidazole-5-carboxylic acid N-[4-(2-furyl)thiazol-2-yl] amide] | <30%
17 | >80% | >95% | 100% | >80% | >80% | 100% | CCc1nc2cc(C(=O)Nc3ncc(-c4ccco4)s3)ccc2n1CCCN [Ligand L68, 1-(3-Amino-1-propyl)-2-ethylbenzimidazole-5-carboxylic acid N-[5-(2-furyl)thiazol-2-yl] amide] | <30%
18 | >60% | >90% | 100% | >80% | >80% | >95% | CCc1nc2cc(C(=O)Nc3ccc(-c4ccco4)nn3)ccc2n1CCCN [Ligand L69, 1-(3-Amino-1-propyl)-2-ethylbenzimidazole-5-carboxylic acid N-[6-(2-furyl)pyridazin-3-yl]amide] | <30%
